Reference: patent US20160199434A1, “COMPOSITIONS AND METHODS FOR MODULATING DNA METHYLATION” (OHIO STATE INNOVATION FOUNDATION, priority 2013, published 2016)

Legend:
[1] = test system: DNMT-3b; test: DNMT-3b mRNA expression in lungs of normal mice after systemic administration; assay type: in vivo, mouse; settings: i.p. 17.5 mg/kg three times per week for three weeks, vs DMSO
Experimental: (§1) FIGS. 14A-14C show the effects of systemic administration of AKB-6899. Mice were treated three times per week for three weeks with either i.p. AKB-6899 or i.p. DMSO. The lungs were removed and assayed to determine DNMT mRNA expression, percent CpG methylation, and fold change in mRNA. […] The data was standardized to 1.0 by the DMSO levels of the respective gene expression, (n=4 lungs per condition).

[2] = test system: DNMT-3a; test: DNMT-3a mRNA expression in lungs of normal mice after systemic administration; assay type: in vivo, mouse; settings: i.p. 17.5 mg/kg three times per week for three weeks, vs DMSO
Experimental: as §1

[3] = test system: RASSF1 mRNA; test: RASSF1 mRNA expression in lungs of normal mice; assay type: in vivo, mouse; settings: i.p., three weeks (FIG. 14C)
Experimental: as §1

[4] = test system: desmoplakin mRNA; test: Desmoplakin mRNA expression in cultured PyMT cells; assay type: cell-based, mouse
Experimental: FIGS. 3A-3E show the effect of AKB-6899 (25 μM) on methylation of the desmoplakin (DSP) gene promoter in PyMT breast cancer cells (3A), human MDA-MB-231 triple negative breast cancer cells (3B), human C8161.9 melanoma cells (3C), and human MCF-7 breast cancer cells (3D). In FIG. 3A, the DSP promoter was 100% unmethylated (AKB-6899) vs. 99.99% methylated (vehicle). In FIG. 3B, the DSP promoter was 99.62% unmethylated (AKB-6899) v. 99.89% (vehicle). In FIG. 3C, the DSP promoter was 99.90% unmethylated (AKB-6899) v. 42.04% (vehicle). In FIG. 3D, the DSP promoter was 92.48% unmethylated (AKB-6899) v. 98.48% (vehicle). In FIG. 3E, when compared to the vehicle (DMSO), treatment of PyMT cells with AKB-6899 increased DSP expression.
FIGS. 4A-4B show desmoplakin mRNA expression in vitro and in vivo.

O=C(O)CNC(=O)c1ncc(-c2cccc(F)c2)cc1O [AKB-6899, {[5-(3-Fluorophenyl)-3-hydroxypyridine-2-carbonyl]amino}acetic acid]
DNMT-3b expression in lungs [1]: inhibited | DNMT-3a expression in lungs [2]: inhibited | RASSF1 mRNA expression in lungs [3]: increased | DSP expression ([4]; PyMT cells, compared to vehicle (DMSO) (FIG. 3E)): increased | desmoplakin mRNA expression ([4]; cultured PyMT cells, 10 μM, compared to DMSO (FIG. 4A)): significantly increases
